Our source for the IC50 values is PMC7250896, “Inhibition of mitochondrial complex I by the novel compound FSL0260 enhances high salinity-stress tolerance in Arabidopsis thaliana” (Scientific Reports, 2020).

As a reminder, the IC50 is the concentration needed to halve the response being measured.

For this test, the system named is T1, mitochondrial complex I.
T1 construct: native multi-subunit complex in sonicated mitochondria isolated from potato tuber; with Gamma-CA (complex I subunit detected in the pull-down)
The experiment in a line: deamino-NADH oxidation ([…] nm) in sonicated mitochondria; OCR; pull-down with FSL0260-fixed agarose beads. The format is biochemical, Solanum tuberosum.

Take `Cc1ccc(S(=O)(=O)OCC2Oc3ccccc3C=C2C[n+]2ccccc2)cc1` (stereo not shown) [FSL0260]: the IC50 came out at 45.1 µM.
